Tests used:
[1] = system: mouse macrophages RAW264.7; assay: effect on proliferation activity of mouse macrophages RAW264.7; assay type: cell-based; details: 80 μM; n=3; FIG. 4
SD rats = assay: acute toxicity, single oral dose; assay type: in vivo; details: single intragastric administration, 14 days observation
From the text: Trial method: 30 SD rats, half male and half female, were used. The average weight was 160-200 g for female rats and 180-220 g for male rats when grouped. An individual weight should be within ±20% of the average weight. Before the test, animals needed to accommodate to the environment for at least 5 days, and healthy rats (female rats should be not pregnant) were selected as test animals. Matter detected during the accommodation period mainly was: whether the rats were consistent with quality indexes required in the order; detection of general conditions; and whether the weight was within the weight range required by the test. Unqualified abnormal animals were excluded from the test. A single dosage was orally administered to rats at a low, medium, or high dose. […] A control group was set with the oral administration of the same volume of solvent.
The rats were observed about 0-2 h and 4-6 h after each administration. If a toxicity symptom occurs, the rats may be observed more times. (2) Gross anatomical observation: on the 14th day of the test, all surviving rats in each group were dissected and observed, and for administration sites and gross dissection, abnormal organs and tissues which were observed and found to be potentially related to test samples were photographed and recorded. (3) Disposal of dying animals: status of rats and observation time were recorded, and their weights were measured. (4) Disposal of dead animals: the time of death or when a rat was found dead were recorded. The rat was measured for weight before quickly dissected for gross observation and speculated for a cause of death.

With COc1c2cc(c(O)c1OC)CCCCC(OS(=O)(=O)O)CCc1ccc(O)c-2c1 (centres unmarked) [compound H, 11-sulfonyloxy myricanol] the “effect on proliferation activity of mouse macrophages RAW264.7” value [1] was “no significant effects”, the “Test Endpoint (toxic side effects)” value (SD rats; 100 mg/kg) was “No obvious toxic” and the “Test Endpoint (toxic side effects)” value (SD rats; 300 mg/kg) was “No obvious toxic”. The “Test Endpoint (toxic side effects)” value (SD rats; 1000 mg/kg) was “No obvious toxic” and the “Test Endpoint (toxic side effects)” value (SD rats; 1500 mg/kg) was “No obvious toxic”.
